The source of these data is US9999659B2, “Treatments using a peptide and/or vaccine” (AFFIRIS AG, priority 2012, dated 2018).

No end group written: not given here.

The subject of this test is Balb/c mice. The test can be described thus: Total cholesterol assay in immunized mice. Type of test: in vivo, mouse. The protocol: The peptides were conjugated via the heterobifunctional linker GMBS (4-Maleimidobutyric acid N-hydroxysuccinimide ester) to KLH (Keyhole Limpet Hemocyanin).
5 Balb/c mice were subcutaneously immunized. Mice had access to food and water ad libitum and were kept under a 12 h light/dark cycle. The age of mice at the beginning of experiments was 8 to 10 weeks.
Mice were injected four times in 2 week intervals with 15 μg of net peptide coupled to KLH and adsorbed to Alhydrogel as adjuvant in a volume of 1 ml in total.
Blood was taken approximately 2 weeks after the final injection.
Total cholesterol was measured with the LabAssay™ Cholesterol Kit (Wako).
For this purpose mice have been immunized with HPLC purified peptides coupled to KLH and formulated with an adjuvant (Alum) as vaccines (Sequence-KLH/Alum). In the first experiment, a direct comparison between the original PCSK9 sequence and the novel sequence […] has been performed. Here, mice have been immunized with irrelevant peptide vaccine (irrelevant peptide-KLH/Alum) as a negative control group, original PCSK9 sequence vaccine ([…]-KLH/Alum) and the novel sequence vaccine ([…]-KLH/Alum). The latter group ([…]-KLH/Alum) has been used not only to compare its functionality of the induced antibodies to the functionality of the antibodies generated using the original PCSK9 sequence vaccine ([…]-KLH/Alum), but also as a bridging group between different experiments.
Subsequently, a second experiment has been performed wherein mice have been immunized with irrelevant peptide as a negative control group and all the three novel sequences […], […] and […], all coupled to KLH and formulated as vaccines. As it has been already mentioned above, the mice immunized with the novel sequence ([…]-KLH/Alum) have been used as a bridging group between the experiments. In fact, the bridging group injected with the novel sequence ([…]-KLH/Alum) is behaving in a similar way in both experiments (FIGS. 5A, 5B, 6A and 6B) and most importantly, all three groups immunized with vaccines containing one of the sequences […], […] or […] behave in a very similar way in terms of reduction of plasma total cholesterol levels (FIGS. 6A and 6B).

On to “VIPWNLERIL: vaccine containing novel sequence VIPWNLERIL (SEQ ID No. 55), coupled to KLH and formulated as vaccine (also: coupled to KLH)”, for which the “total cholesterol compared to the group injected with vaccine containing the original PCSK9 sequence SIPWNLERIT” value (result in words) is “significantly reduce”.

Turning to “SIPWSLERIT-KLH/Alum: novel sequence vaccine: peptide SIPWSLERIT (SEQ ID No. 21) coupled to KLH and formulated with adjuvant Alum (also: coupled to KLH, site not given here)”, where the note is “FIGS. 5A and 5B, result in words”, the “levels of total cholesterol in comparison to the negative control group” value is reported as “strongly reduce”. The “% decrease of TC compared to the irrelevant (negative) control group” value (first experiment, FIG. 5B, mice immunized with Sequence-KLH/Alum) was 35-40%. In addition, the “total cholesterol compared to the group injected with vaccine containing the original PCSK9 sequence SIPWNLERIT” value is, setting by setting: (result in words) “significant reduction”; (result in words, listed as SIPWSLERIT) “significantly reduce”.

For “SVPWNLERIQ: vaccine containing novel sequence SVPWNLERIQ (SEQ ID No. 60), coupled to KLH and formulated as vaccine (also: coupled to KLH)”, the “total cholesterol compared to the group injected with vaccine containing the original PCSK9 sequence SIPWNLERIT” value (result in words) is given as “significantly reduce”.
